Source: the NIST ThermoML archive (doi:10.1021/je0500577)
± gives the expanded uncertainty stated by the source.

Experiments:
[1] = xn = mol fraction of the nth substance listed; settings: Drop volume
[2] = for surface tension liquid-gas: Drop volume; for mass density: 101.33 kPa, Liquid

ClC1CCCCC1 [chlorocyclohexane] + C1CCOCC1
surface tension liquid-gas [mN/m], [1]
Settings | 298.15 K | 313.15 K
x1 = 0.044 | – | 25.64 ± 0.23
x1 = 0.0446 | 27.44 ± 0.24 | –
x1 = 0.085 | 27.58 ± 0.24 | –
x1 = 0.0854 | – | 25.82 ± 0.23
x1 = 0.1668 | – | 26.17 ± 0.23
x1 = 0.1673 | 27.88 ± 0.24 | –
x1 = 0.2584 | 28.23 ± 0.24 | –
x1 = 0.259 | – | 26.55 ± 0.23
x1 = 0.3519 | 28.62 ± 0.25 | –
x1 = 0.3527 | – | 26.94 ± 0.24
x1 = 0.4499 | – | 27.33 ± 0.24
x1 = 0.4501 | 29.01 ± 0.25 | –
x1 = 0.5511 | 29.41 ± 0.25 | –
x1 = 0.5923 | – | 27.91 ± 0.24
x1 = 0.6578 | – | 28.17 ± 0.24
x1 = 0.658 | 29.82 ± 0.25 | –
x1 = 0.7676 | 30.24 ± 0.26 | –
x1 = 0.7693 | – | 28.6 ± 0.25
x1 = 0.8744 | 30.62 ± 0.26 | –
x1 = 0.8809 | – | 29.02 ± 0.25
x1 = 0.9385 | – | 29.22 ± 0.25
x1 = 0.9393 | 30.84 ± 0.26 | –
x1 = 1 | 31.05 ± 0.26 | 29.44 ± 0.25

ClC1CCCCC1 [chlorocyclohexane] + CC1CCC(C)O1
[1], x1 = 1
Settings | surface tension liquid-gas [mN/m]
298.15 K | 31.05 ± 0.26
313.15 K | 29.44 ± 0.25

ClC1CCCCC1 [chlorocyclohexane] + CC1CCCO1
surface tension liquid-gas [mN/m], [1]
Settings | 298.15 K | 313.15 K
x1 = 0.0434 | – | 23.23 ± 0.22
x1 = 0.0471 | 24.85 ± 0.22 | –
x1 = 0.0868 | – | 23.44 ± 0.22
x1 = 0.0884 | 25.11 ± 0.23 | –
x1 = 0.1719 | – | 23.93 ± 0.22
x1 = 0.1722 | 25.63 ± 0.23 | –
x1 = 0.2652 | 26.2 ± 0.23 | –
x1 = 0.2653 | – | 24.47 ± 0.22
x1 = 0.3536 | – | 25 ± 0.23
x1 = 0.3605 | 26.81 ± 0.24 | –
x1 = 0.4587 | 27.44 ± 0.24 | –
x1 = 0.4591 | – | 25.65 ± 0.23
x1 = 0.5615 | 28.15 ± 0.24 | –
x1 = 0.5618 | – | 26.31 ± 0.23
x1 = 0.6654 | 28.86 ± 0.25 | –
x1 = 0.6677 | – | 27.03 ± 0.24
x1 = 0.7734 | – | 27.78 ± 0.24
x1 = 0.7761 | 29.62 ± 0.25 | –
x1 = 0.8805 | – | 28.58 ± 0.25
x1 = 0.8856 | 30.34 ± 0.26 | –
x1 = 0.9404 | – | 29 ± 0.25
x1 = 0.9418 | 30.7 ± 0.26 | –
x1 = 1 | 31.05 ± 0.26 | 29.44 ± 0.25

C1CCOC1 [tetrahydrofuran]
[2]
Settings | mass density [kg/m3] | surface tension liquid-gas [mN/m]
298.15 K | 882.1 ± 0.45 | 27.12 ± 0.21
313.15 K | – | 25.24 ± 0.2

C1CCOC1 [tetrahydrofuran] + BrC1CCCCC1
[1], x2 = 0
Settings | surface tension liquid-gas [mN/m]
298.15 K | 27.12 ± 0.21
313.15 K | 25.24 ± 0.2

C1CCOC1 [tetrahydrofuran] + ClC1CCCCC1
[1], x2 = 0
Settings | surface tension liquid-gas [mN/m]
298.15 K | 27.12 ± 0.21
313.15 K | 25.24 ± 0.2

C1CCOCC1 [tetrahydropyran]
[2]
Settings | mass density [kg/m3] | surface tension liquid-gas [mN/m]
298.15 K | 878.82 ± 0.61 | 27.29 ± 0.24
313.15 K | – | 25.46 ± 0.23

C1CCOCC1 [tetrahydropyran] + BrC1CCCCC1
[1], x2 = 0
Settings | surface tension liquid-gas [mN/m]
298.15 K | 27.29 ± 0.24
313.15 K | 25.46 ± 0.23

C1CCOCC1 [tetrahydropyran] + ClC1CCCCC1
[1], x2 = 0
Settings | surface tension liquid-gas [mN/m]
298.15 K | 27.29 ± 0.24
313.15 K | 25.46 ± 0.23
